Assay results reported in PMC8427023, “Bithiazole Inhibitors of Phosphatidylinositol 4‐Kinase (PI4KIIIβ) as Broad‐Spectrum Antivirals Blocking the Replication of SARS‐CoV‐2, Zika Virus, and Human Rhinoviruses” (Chemmedchem, 2021).
≈ marks a conversion by molar mass, not a printed value. Read-outs that look alike come from different tables or passages of the source. Marks after values point to notes of the source that are not given here.

Assays:
[1] = target: T1, PI4KIIIβ (Homo sapiens, UniProt Q9UBF8); experiment: In vitro kinase inhibition assay, PI4KIIIβ; assay type: biochemical; conditions: mean of at least three independent experiments; 20 μM ATP
T1 construct: Recombinant full length, HIS6 -tagged PI4KIIIβ was purchased from ProQinase; His6; purchased ProQinase (Germany)
T1 sequence (Q9UBF8 whole entry): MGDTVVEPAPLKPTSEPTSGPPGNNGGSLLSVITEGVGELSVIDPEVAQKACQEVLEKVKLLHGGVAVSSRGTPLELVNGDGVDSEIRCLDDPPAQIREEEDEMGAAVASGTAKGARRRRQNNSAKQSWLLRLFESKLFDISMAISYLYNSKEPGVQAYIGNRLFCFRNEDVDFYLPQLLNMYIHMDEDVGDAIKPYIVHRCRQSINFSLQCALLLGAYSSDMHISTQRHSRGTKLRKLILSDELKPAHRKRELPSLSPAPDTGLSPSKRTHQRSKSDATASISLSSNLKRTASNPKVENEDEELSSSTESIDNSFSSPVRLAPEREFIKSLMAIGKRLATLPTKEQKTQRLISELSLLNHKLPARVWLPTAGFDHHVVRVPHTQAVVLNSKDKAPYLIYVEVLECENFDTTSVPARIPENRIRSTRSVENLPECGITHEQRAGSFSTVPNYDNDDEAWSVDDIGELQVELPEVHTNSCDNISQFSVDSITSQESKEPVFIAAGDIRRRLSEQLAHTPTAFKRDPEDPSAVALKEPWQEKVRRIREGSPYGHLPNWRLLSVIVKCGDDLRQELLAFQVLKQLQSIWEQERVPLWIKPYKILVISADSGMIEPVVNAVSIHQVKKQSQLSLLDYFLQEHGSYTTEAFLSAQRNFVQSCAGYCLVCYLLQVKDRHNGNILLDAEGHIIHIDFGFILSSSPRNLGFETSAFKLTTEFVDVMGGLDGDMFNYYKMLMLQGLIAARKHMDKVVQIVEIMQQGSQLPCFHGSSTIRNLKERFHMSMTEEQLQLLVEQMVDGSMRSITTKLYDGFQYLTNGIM

[2] = Cytotoxicity assay (CellTiter-Glo 2.0) in Calu-3 cells; assay type: cell-based; conditions: human, half-maximal cytotoxic concentration, read-out: SARS-CoV-2 Calu-3 CC50
[3] = tested on: ZIKV; experiment: Direct yield reduction assay (DYRA), ZIKV in Huh7 cells; assay type: cell-based, Zika virus; conditions: for IC50: Zika virus, read-out: ZIKV Huh7 IC50
[4] = tested on: hRV2; experiment: Multicycle CPE reduction antiviral assay, hRV2 in HeLa cells; assay type: cell-based, human rhinovirus 2; conditions: 3 days
[5] = tested on: hRV14; experiment: Multicycle CPE reduction antiviral assay, hRV14 in HeLa cells; assay type: cell-based, human rhinovirus 14; conditions: 3 days
[6] = physchem; assay type: physicochemical; conditions: pH 7.4, aqueous buffer
[7] = in vitro; assay type: in vitro ADME; conditions: PAMPA, pH 7.4; for Membrane Retention (% MR): 5 h, 500 μM
Method: (§1) appropriate calibration curve. For each compound, the determination was performed in three […]
(§2) Parallel Artificial Membrane Permeability Assay (PAMPA)
(§3) Each ‘donor solution’ was prepared from a solution of each compound (DMSO, 1 mM) diluted with 25 mM Phosphate Buffered Saline (PBS) at pH 7.4, up to a final concentration of 500 μM. The donor wells were filled with 150 µL of ‘donor solution’. The filters were coated with 5 μL of a solution of phosphatidylcholine in dodecane 1% (w/v) and the lower wells filled with 300 µL of ‘acceptor solution’ (50% v/v DMSO and PBS). The sandwich plate was assembled and incubated for 5 hours at room temperature under gentle shaking. At the end of the incubation time, the sandwich was disassembled and the amount of compound in the donor and acceptor wells was measured by LC-UV-MS. For each compound, the determination was performed in three independent experiments.
Apparent permeability (Papp) and membrane retention (%MR) were calculated according to the equations reported in reference. […]

[8] = assay type: in vitro ADME; conditions: human, 24 h, 100 µM, pH 7.4
Method: appropriate calibration curve. […]
(§4) Stability in Human Plasma
(§5) Pooled human plasma (1.5 mL, […]), PBS (1.4 mL, pH 7.4, 25 mM) and tested compound dissolved in DMSO (100 µL, 3.0 mM) were mixed in a test tube that was incubated at 37 […]
mixed with 600 µL of cold acetonitrile and centrifuged at 5000 rpm for 15 min [3]. The supernatant was removed and analyzed by LC-UV-MS. For each compound, the determination was performed in three independent experiments. […]

[9] = Stability in medium/serum solution; assay type: in vitro ADME; conditions: EMEM, 2 mM L-glut, 1 % FBS, 1 % Pen/Strep, 37 °C
Method: as §1, §2, §3
Apparent permeability (Papp) and membrane retention (%MR) were calculated according to the equations reported in reference.
as §4, §5
mixed with 600 µL of cold acetonitrile and centrifuged at 5000 rpm for 15 min [3]. The supernatant was removed and analyzed by LC-UV-MS. For each compound, the determination was performed in three independent experiments.
Stability in Medium/Serum solution
The stability of compounds under the experimental conditions used in the ENTRY-DYRA antiviral assay was evaluated. Each tested compound dissolved din DMSO (1.0 mL, 400 µM) was mixed in a test tube with EMEM, 2 mM L-glut, 1% FBS, 1% Pen/Strep solution (final concentration of the compound of 200 µM) and then incubated at 37 °C. At set time points (0.0, 0.08, 0.25, 0.50, 1.0, 3.0, and 24.0 h), samples of 100 µL were taken, mixed with 400 µL of cold acetonitrile and centrifuged at 5000 rpm for 15 min. The supernatant was removed and analyzed by UV/LC-MS. For each compound, the determination was performed in three independent experiments.

[10] = Stability in medium/serum solution; assay type: in vitro ADME; conditions: EMEM, 2 mM L-glut, 1 % FBS, 1 % Pen/Strep, 37 °C; remark: listed apart in the source
[11] = in vitro; conditions: human
[12] = in vitro; conditions: human; remark: listed apart in the source
[13] = in vitro; conditions: human; remark: listed apart in the source
[14] = tested on: SARS-CoV-2; experiment: microbe, parasite or virus in culture; assay type: cell-based; conditions: for IC50: read-out: SARS-CoV-2 Calu-3 IC50 (DYRA protocol)
[15] = tested on: SARS-CoV-2; experiment: ENTRY-DYRA (entry inhibitor protocol), SARS-CoV-2 in Calu-3 cells; assay type: cell-based
[16] = in vitro; conditions: human; remark: listed apart in the source
[17] = tested on: HeLa; conditions: read-out: HeLa CC50; HeLa cells
[18] = Cytotoxicity assay (CellTiter-Glo 2.0) in Huh7 cells; conditions: human
[19] = tested on: hRV2; design: method as in PMID 31729878; conditions: HeLa cells; cited from earlier work
[20] = tested on: hRV14; design: method as in PMID 31729878; conditions: HeLa cells; cited from earlier work
[21] = tested on: Enterovirus-A71 (EV-A71); design: method as in PMID 28122178, PMID 31729878; conditions: at low micromolar concentration; cited from earlier work
[22] = tested on: coxsackievirus B3 (CVB3); design: method as in PMID 28122178, PMID 31729878; conditions: at low micromolar concentration; cited from earlier work
[23] = pH 7.4; cited from earlier work
[24] = PAMPA; cited from earlier work
[25] = C57BL/6 mice, up to 180 mg/kg; cited from earlier work
[26] = Severe acute respiratory syndrome coronavirus 2, Calu-3 cells, 72 h incubation, ±SD, NA: Not active
[27] = Severe acute respiratory syndrome coronavirus 2, Calu-3, 72 h
[28] = Calu-3 cells treated 1 h before infection, compound and virus removed, 72 h incubation

Row | SMILES | IC50 [1] [µM] | CC50 [2] [µM] | IC50 ([3]; Huh-7, Huh7 cells, DYRA, 72 h) [µM] | IC50 ([4]; Rhinovirus A, HRV2, 72 h) [µM] | IC50 ([5]; Rhinovirus B, HRV14, 72 h) [µM] | solubility [6] [µg/mL] | Membrane Retention (% MR) [7] [%] | Papp at 5 h, 500 μM [7] [×10⁻⁶ cm/s] | Plasma Stability [8] [%] | Stability in Medium/Serum 24 h [9] [%] | Stability in Medium/Serum 48 h [10] [%] | CC50 [11] [µM] | CC50 at 3 days [12] [µM] | viability at 4 h, 50 µM [13] [%] | IC50 [14, 26] [µM] | other results
1 | Cc1nc(NC(=O)C(C)(C)C)sc1-c1csc(NCC(O)CO)n1 (stereo not shown) [4 a] | 0.29 ± 0.08 | > 100 | 46.5 ± 2.96 | 1.77 ± 0.62 | 2.32 ± 1.54 | 5.26 (≈ 14.2 µM) | < 0.1 | 0.008 | 99.4 | 99.0 | 97.5 | > 200 | > 30 | 96 |  | 
2 | Cc1nc(NC(=O)C(C)(C)C)sc1-c1csc(N(CCO)CCO)n1 [4 b] | 0.24 ± 0.05 | > 100 | 5 ± 1.2 | 1.37 ± 1.31 | 2.07 ± 1.45 | 0.28 (≈ 0.728 µM) | 0.94 | 0.021 | 90.2 | 91.4 | 84.9 | 125 | > 30 | 92.6 |  | 
3 | Cc1nc(NC(=O)C(C)(C)C)sc1-c1csc(NCC(C)(C)O)n1 [4 c] | 0.89 ± 0.2 | > 100 | 0.83 ± 0.31 | 0.39 ± 0.01 | 0.48 ± 0.14 | 0.32 (≈ 0.868 µM) | < 0.1 | 0.323 | 92.3 | 77 | 67.3 | 37 | > 30 | 98.3 |  | 
4 | Cc1nc(NC(=O)C(C)(C)C)sc1-c1csc(N(CC(C)(C)O)C2CCCCC2)n1 [4 d] | 1.97 ± 0.79 | 17 | 0.51 ± 0.05 | 0.9 ± 0.72 | 1.4 ± 1.2 | 0.01 (≈ 0.0222 µM) | 18.05 | 11.7 | 92.4 | 93.3 | 85.7 | 4 | 23.8 ± 1.7 | 94.8 | 1.57 ± 0.38 | selectivity index (SI) against SARS-CoV-2 under DYRA conditions ([14]; ratio between CC50 and IC50, Calu-3): 11; IC50 ([15]; Severe acute respiratory syndrome coronavirus 2, Calu-3 cells treated 1 h before infection, compound and virus removed, 72 h incubation, read-out: SARS-CoV-2 Calu-3 IC50 (ENTRY-DYRA conditions, in parenthesis) (converted)): 0.37 µM; selectivity index (SI) against ZIKV ([3]; ratio between CC50 and IC50, Huh7): 8; viability [16]: > 95%
5 | Cc1nc2c(NCc3cccc(S(C)(=O)=O)c3)nccn2c1-c1ccc(O)c(F)c1 [BF738735, reference compound] |  |  |  |  |  |  |  |  |  |  |  |  |  |  |  | IC50 [4]: 0.39 ± 0.36 µM; IC50 [5]: 0.59 ± 0.28 µM; CC50 [17]: > 30 µM
6 | CN(C)C(=O)COC(=O)Cc1ccc(OC(=O)c2ccc(NC(=N)N)cc2)cc1 [CMT, Camostat, reference compound] |  | 200 |  |  |  |  |  |  |  |  |  |  |  |  |  | IC50 [14, 27]: 0.82 ± 0.32 µM; IC50 ([15]; Severe acute respiratory syndrome coronavirus 2, Calu-3, read-out: SARS-CoV-2 Calu-3 IC50 (ENTRY-DYRA conditions, in parenthesis)): 0.04 µM
7 | CCC(CC)COC(=O)[C@H](C)N[P@](=O)(OC[C@H]1O[C@@](C#N)(c2ccc3c(N)ncnn23)[C@H](O)[C@@H]1O)Oc1ccccc1 [RMD, Remdesivir, reference compound] |  | 97 |  |  |  |  |  |  |  |  |  |  |  |  | 0.11 ± 0.04 | 
8 | CC(C)OC(=O)[C@H](C)N[P@](=O)(OC[C@H]1O[C@@H](n2ccc(=O)[nH]c2=O)[C@](C)(F)[C@@H]1O)Oc1ccccc1 [SOF, Sofosbuivir, reference compound] |  |  |  |  |  |  |  |  |  |  |  |  |  |  |  | IC50 ([3]; Huh-7, 72 h): 2.7 ± 0.5 µM; CC50 [18]: 200 µM
9 | Cc1nc(NC(=O)C(C)(C)C)sc1-c1csc(Nc2cccc(C(=O)O)c2)n1 [compound 1] |  | 45 |  |  |  | 0.21 (≈ 0.504 µM) | < 0.1 | 0.052 | 99.1 | 96.4 | 93.1 | 110 | 36 | 94.1 |  | IC50 [14, 27]: 7.45 ± 2.47 µM; SARS-CoV-2 Calu-3 IC50 (ENTRY-DYRA conditions, in parenthesis) [15, 28]: no effect on the entry phase; IC50 ([3]; Huh-7, 72 h): 13.8 ± 4.08 µM; IC50 [19]: 9.7 µM; IC50 [20]: 15.3 µM; inhibition of EV-A71 replication in infected cells [21]: inhibited; inhibition of CVB3 replication in infected cells [22]: inhibited
10 | CC(=O)c1cccc(N(CCO)c2nc(-c3sc(NC(=O)C(C)(C)C)nc3C)cs2)c1 [compound 2] | 2.1 ± 0.17 | 40 | 1 ± 0.1 |  |  |  | < 0.1 |  |  | 98.5 | 90.4 | 16 | 17 | 94.5 | 3.95 ± 1.48 | SARS-CoV-2 Calu-3 IC50 (ENTRY-DYRA conditions, in parenthesis) [15, 28]: no effect on the entry phase; IC50 [19]: 6.1 µM; IC50 [20]: > 9.1 µM; inhibition of EV-A71 replication in infected cells [21]: inhibited; inhibition of CVB3 replication in infected cells [22]: inhibited; Aqueous Solubility [23]: 0.05* μg/mL; Papp [24]: 1,1 10^−6 cm/sec; tolerability, acute toxicity and histological alterations in key biodistribution organs [25]: well tolerated
